The results in this text go back to ChEMBL document CHEMBL1129716, “Indolizidine derivatives as potential substance P antagonists” (Bioorg Med Chem Lett, 1996).

Where only a bound is given, the exact number is not on record here.

The target of the test is Substance-P receptor (Homo sapiens, UniProt P25103). The experiment in a line: Binding affinity was carried out with NK 1 receptors from U-373MG human astrocytoma cell line. Particulars: u-373mg atcc. Format: cell-based.
Sequence of Substance-P receptor (P25103 whole entry): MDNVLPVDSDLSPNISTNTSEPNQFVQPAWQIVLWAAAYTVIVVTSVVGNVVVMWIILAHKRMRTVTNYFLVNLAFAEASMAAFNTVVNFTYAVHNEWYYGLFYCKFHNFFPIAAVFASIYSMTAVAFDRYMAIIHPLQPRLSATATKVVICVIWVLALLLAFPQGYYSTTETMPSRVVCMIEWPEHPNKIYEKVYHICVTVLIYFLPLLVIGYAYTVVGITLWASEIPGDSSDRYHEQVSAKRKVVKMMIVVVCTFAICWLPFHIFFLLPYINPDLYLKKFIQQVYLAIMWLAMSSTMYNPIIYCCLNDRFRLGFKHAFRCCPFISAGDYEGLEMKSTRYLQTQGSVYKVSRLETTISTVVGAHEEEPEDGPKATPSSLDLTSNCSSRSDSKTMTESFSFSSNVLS

For the molecule `C=C1CN2CCC[C@H](NCc3ccccc3OC)[C@@]2(c2ccccc2)C1`, the “Log Ki” value was less than -7.
The figure for `COc1ccccc1CN[C@H]1CCCN2CCC[C@]12c1ccccc1` is less than -7.
